Measurements: patent US10301261B2, “Substituted indoles as modulators of ROR-gamma” (Vitae Pharmaceuticals, LLC, priority 2015, dated 2019)

Experiments:
[1] = target: recombinant RORγ Ligand Binding Domain (LBD) protein (Homo sapiens (Human), UniProt P51449); test: Radio-Ligand RORγ Binding Assay (Assay 1); details: radio-ligand 25-hydroxy [26,27-3H]-cholesterol competition
Summary of the method: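 Cell-free competition with 25-hydroxy[26,27-³H]-cholesterol for the ligand site of 6×His-GST-tagged RORγ LBD; SPA read-out with poly-Lys YSi beads after shaking and incubation at rt. IC50 taken as the inflection point of a four-parameter fit of percent inhibition vs concentration.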

[2] = target: full-length RORγt in Jurkat cells (Homo sapiens (Human), UniProt P51449); test: RORγt 5×RORE Assay in Jurkat Cells (Assay 2); assay type: cell-based; details: RORγt 5×RORE Nanoluc reporter
Sequence of full-length RORγt in Jurkat cells (P51449 other isoform, or with tags, fused parts or gaps): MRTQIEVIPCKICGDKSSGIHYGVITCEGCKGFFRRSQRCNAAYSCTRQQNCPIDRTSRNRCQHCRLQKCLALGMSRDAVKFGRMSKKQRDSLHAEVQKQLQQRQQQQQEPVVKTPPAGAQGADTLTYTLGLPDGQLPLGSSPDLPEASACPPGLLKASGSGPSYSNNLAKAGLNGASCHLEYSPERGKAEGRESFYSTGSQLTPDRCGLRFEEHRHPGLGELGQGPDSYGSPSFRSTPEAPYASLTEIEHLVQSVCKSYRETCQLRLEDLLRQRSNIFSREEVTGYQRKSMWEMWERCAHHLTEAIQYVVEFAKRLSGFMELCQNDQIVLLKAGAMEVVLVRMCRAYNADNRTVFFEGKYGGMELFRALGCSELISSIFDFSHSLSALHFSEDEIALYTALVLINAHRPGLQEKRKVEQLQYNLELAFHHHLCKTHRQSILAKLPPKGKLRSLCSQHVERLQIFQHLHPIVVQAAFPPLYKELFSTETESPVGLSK
Procedure: [formula] RORγt 5×RORE Assay in Jurkat Cells (Assay 2)
Compounds described herein were tested for RORγ inverse agonist activity in a cell-based, transcriptional activity assay. […] (Promega, Cat. # N1021) using KpnI and HindIII restriction sites. […] Tested compounds were added to the cells in the same media (final concentration of DMSO was 0.1% (v/v)), and the plates were incubated at 37° C./5% CO2 for 16-18 hrs. Luciferase activity in the conditioned supernatants was determined with NanoGlo® assay reagents (Promega, Cat.# N1130).

Sequence of recombinant RORγ Ligand Binding Domain (LBD) protein (P51449 269-508): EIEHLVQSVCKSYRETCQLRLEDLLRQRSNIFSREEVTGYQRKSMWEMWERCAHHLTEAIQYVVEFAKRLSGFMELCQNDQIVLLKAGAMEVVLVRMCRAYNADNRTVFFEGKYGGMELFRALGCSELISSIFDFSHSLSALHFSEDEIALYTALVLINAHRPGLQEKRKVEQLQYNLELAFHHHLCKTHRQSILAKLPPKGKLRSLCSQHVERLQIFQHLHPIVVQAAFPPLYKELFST

| Ki [1] | IC50 [2] | Compound |
| --- | --- | --- |
| < 100 nM | 100 to 1000 nM | CCS(=O)(=O)c1ccc(CNC(=O)c2ccc3c(c2)nc(CC2CCN(C(=O)OC(C)(C)C)CC2)n3C2CC2)cc1 [BE-49, tert-butyl 4-((1-cyclopropyl-5-((4-(ethylsulfonyl)benzyl)carbamoyl)-1H-benzo[d]imidazol-2-yl)methyl)piperidine-1-carboxylate] |
| < 100 nM | > 1000 nM | CCS(=O)(=O)c1ccc(CNC(=O)c2ccc3c(c2)nc(Cc2ccc(Cl)cn2)n3C2CC2)cc1 [BE-52, 2-((5-chloropyridin-2-yl)methyl)-1-cyclopropyl-N-(4-(ethylsulfonyl)benzyl)-1H-benzo[d]imidazole-5-carboxamide] |
| < 100 nM | < 100 nM | CCS(=O)(=O)c1ccc(CNC(=O)c2ccc3c(c2)nc(CN2CCC(C(F)(F)F)CC2)n3CC(C)C)cc1 [BE-53, N-(4-(ethylsulfonyl)benzyl)-1-isobutyl-2-((4-(trifluoromethyl)piperidin-1-yl)methyl)-1H-benzo[d]imidazole-5-carboxamide] |
| < 100 nM | < 100 nM | CCS(=O)(=O)c1ccc([C@H](CO)NC(=O)c2ccc3c(c2)nc(CN2CCC(C(F)(F)F)CC2)n3C2CC2)cc1 [BE-54, (R)-1-cyclopropyl-N-(1-(4-(ethylsulfonyl)phenyl)-2-hydroxyethyl)-2-((4-(trifluoromethyl)piperidin-1-yl)methyl)-1H-benzo[d]imidazole-5-carboxamide] |
| < 100 nM | < 100 nM | CCS(=O)(=O)c1ccc(CNC(=O)c2ccc3c(c2)nc(C(=O)c2ccc(C(F)(F)F)cc2)n3C2CC2)cc1 [BE-65, 1-cyclopropyl-N-(4-(ethylsulfonyl)benzyl)-2-(4-(trifluoromethyl)benzoyl)-1H-benzo[d]imidazole-5-carboxamide] |
| < 100 nM | < 100 nM | CCS(=O)(=O)c1ccc([C@H](CO)NC(=O)c2ccc3c(c2)nc(Oc2ccc(C(F)(F)F)cc2)n3C2CC2)nc1 [BE-70, (R)-1-cyclopropyl-N-(1-(5-(ethylsulfonyl)pyridin-2-yl)-2-hydroxyethyl)-2-(4-(trifluoromethyl)phenoxy)-1H-benzo[d]imidazole-5-carboxamide] |
| < 100 nM | < 100 nM | CCn1c(Cc2ccc(C(F)(F)F)cc2)cc2cc(C(=O)NCc3ccc(S(=O)(=O)CC)cc3)ccc21 [IN-1, 1-ethyl-N-(4-(ethylsulfonyl)benzyl)-2-(4-(trifluoromethyl)benzyl)-1H-indole-5-carboxamide] |
| < 100 nM | < 100 nM | CCn1c(Cc2ccc(C(F)(F)F)cc2)cc2cc(C(=O)NCc3ccc(S(=O)(=O)CC)cn3)ccc21 [IN-2, 1-ethyl-N-((5-(ethylsulfonyl)pyridin-2-yl)methyl)-2-(4-(trifluoromethyl)benzyl)-1H-indole-5-carboxamide] |
| < 100 nM | < 100 nM | CCn1c(Cc2ccc(C(F)(F)F)cc2)cc2cc(C(=O)N[C@@H](CO)c3ccc(S(=O)(=O)CC)cc3)ccc21 [IN-3, (R)-1-ethyl-N-(1-(4-(ethylsulfonyl)phenyl)-2-hydroxyethyl)-2-(4-(trifluoromethyl)benzyl)-1H-indole-5-carboxamide] |
| < 100 nM | < 100 nM | CCn1c(Cc2ccc3c(c2)OC(F)(F)O3)cc2cc(C(=O)N[C@@H](CO)c3ccc(S(=O)(=O)CC)cn3)ccc21 [IN-5, (R)-2-((2,2-difluorobenzo[d][1,3]dioxol-5-yl)methyl)-1-ethyl-N-(1-(5-(ethylsulfonyl)pyridin-2-yl)-2-hydroxyethyl)-1H-indole-5-carboxamide] |
| < 100 nM | 100 to 1000 nM | CCn1c(Cc2ccc(Cl)cc2)cc2cc(C(=O)N[C@@H](CO)c3ccc(S(=O)(=O)CC)cn3)ccc21 [IN-8, (R)-2-(4-chlorobenzyl)-1-ethyl-N-(1-(5-(ethylsulfonyl)pyridin-2-yl)-2-hydroxyethyl)-1H-indole-5-carboxamide] |
| < 100 nM | < 100 nM | CCn1c(Cc2ccc(C(F)(F)F)cn2)cc2cc(C(=O)N[C@@H](CO)c3ccc(S(=O)(=O)CC)cc3)ccc21 [IN-9, (R)-1-ethyl-N-(1-(4-(ethylsulfonyl)phenyl)-2-hydroxyethyl)-2-((5-(trifluoromethyl)pyridin-2-yl)methyl)-1H-indole-5-carboxamide] |
| < 100 nM | < 100 nM | CCn1c(CN2CCC(C(F)(F)F)CC2)cc2cc(C(=O)N[C@@H](CO)c3ccc(S(=O)(=O)CC)cc3)ccc21 [IN-10, (R)-1-ethyl-N-(1-(4-(ethylsulfonyl)phenyl)-2-hydroxyethyl)-2-((4-(trifluoromethyl)piperidin-1-yl)methyl)-1H-indole-5-carboxamide] |
| < 100 nM | < 100 nM | CCn1c(CN2CCC(C(F)(F)F)CC2)cc2cc(C(=O)N[C@@H](CO)c3ccc(S(=O)(=O)CC)cn3)ccc21 [IN-11, (R)-1-ethyl-N-(1-(5-(ethylsulfonyl)pyridin-2-yl)-2-hydroxyethyl)-2-((4-(trifluoromethyl)piperidin-1-yl)methyl)-1H-indole-5-carboxamide] |
| < 100 nM | < 100 nM | CCS(=O)(=O)c1ccc(CNC(=O)c2ccc3c(c2)cc(CN2CCC(C(F)(F)F)CC2)n3C2CC2)cc1 [IN-12, 1-cyclopropyl-N-(4-(ethylsulfonyl)benzyl)-2-((4-(trifluoromethyl)piperidin-1-yl)methyl)-1H-indole-5-carboxamide] |
| < 100 nM | < 100 nM | CCS(=O)(=O)c1ccc([C@H](CO)NC(=O)c2ccc3c(c2)cc(CN2CCC(C(F)(F)F)CC2)n3C2CC2)cc1 [IN-13, (R)-1-cyclopropyl-N-(1-(4-(ethylsulfonyl)phenyl)-2-hydroxyethyl)-2-((4-(trifluoromethyl)piperidin-1-yl)methyl)-1H-indole-5-carboxamide] |
| < 100 nM | < 100 nM | CCS(=O)(=O)c1ccc(CNC(=O)c2ccc3c(c2)cc(Cc2ccc(C(F)(F)F)cc2)n3C2CC2)cc1 [IN-18, 1-cyclopropyl-N-(4-(ethylsulfonyl)benzyl)-2-(4-(trifluoromethyl)benzyl)-1H-indole-5-carboxamide] |
| < 100 nM | < 100 nM | CCS(=O)(=O)c1ccc([C@H](CO)NC(=O)c2ccc3c(c2)cc(Cc2ccc(C(F)(F)F)cc2)n3C2CC2)nc1 [IN-19, (R)-1-cyclopropyl-N-(1-(5-(ethylsulfonyl)pyridin-2-yl)-2-hydroxyethyl)-2-(4-(trifluoromethyl)benzyl)-1H-indole-5-carboxamide] |
| < 100 nM | 100 to 1000 nM | CCn1c(Cc2ccc(C#N)cc2)cc2cc(C(=O)N[C@@H](CO)c3ccc(S(=O)(=O)CC)cn3)ccc21 [IN-21, (R)-2-(4-cyanobenzyl)-1-ethyl-N-(1-(5-(ethylsulfonyl)pyridin-2-yl)-2-hydroxyethyl)-1H-indole-5-carboxamide] |
| < 100 nM | < 100 nM | CCn1c(C(=O)c2ccc(C(F)(F)F)cn2)cc2cc(C(=O)N[C@@H](CO)c3ccc(S(=O)(=O)CC)cc3)ccc21 [IN-22, (R)-1-ethyl-N-(1-(4-(ethylsulfonyl)phenyl)-2-hydroxyethyl)-2-(5-(trifluoromethyl)picolinoyl)-1H-indole-5-carboxamide] |

| Compound | Ki [1] | IC50 [2] |
| --- | --- | --- |
| CCn1c(C[C@H]2CC[C@H](C(F)(F)F)CC2)cc2cc(C(=O)NCc3ccc(S(=O)(=O)CC)cn3)ccc21 [IN-15.1, 1-ethyl-N-((5-(ethylsulfonyl)pyridin-2-yl)methyl)-2-(((1r,4r)-4-(trifluoromethyl)cyclohexyl)methyl)-1H-indole-5-carboxamide] | < 100 nM | < 100 nM |
| CCn1c(C[C@H]2CC[C@H](C(F)(F)F)CC2)cc2cc(C(=O)N[C@@H](CO)c3ccc(S(=O)(=O)CC)cc3)ccc21 [IN-16.1, 1-ethyl-N-((R)-1-(4-(ethylsulfonyl)phenyl)-2-hydroxyethyl)-2-(((1r,4R)-4-(trifluoromethyl)cyclohexyl)methyl)-1H-indole-5-carboxamide] | < 100 nM | < 100 nM |
| CCn1c(C[C@H]2CC[C@H](C(F)(F)F)CC2)cc2cc(C(=O)NCc3ccc(S(=O)(=O)CC)cc3)ccc21 [IN-17.1, 1-ethyl-N-(4-(ethylsulfonyl)benzyl)-2-(((1r,4r)-4-(trifluoromethyl)cyclohexyl)methyl)-1H-indole-5-carboxamide] | < 100 nM | < 100 nM |
